Among the data in patent publication US20240308985A1 (Psy Therapeutics, Inc., priority 2021, published 2024) are IC50 values, retold here.

For one experiment, the target named is Monoacylglycerol Lipase (MAGL) (Homo sapiens (Human), UniProt Q99685). Nature of the experiment: MAGL inhibition potency (IC50) assay with 4NPA substrate. The format is biochemical. The note with it: Method 6: Reaction Biology MAGL enzyme, 6 nM; read-out: MAGL Potency (Detection Method). An excerpt: The potency of certain compounds for inhibiting MAGL were obtained using the following assays. The monoacylglycerol lipase inhibitor screening assay kit from Cayman Chemical was used to measure the MAGL potency for the compounds in Table 6 and Table 7. Cayman's Monoacylglycerol Lipase Inhibitor Screening Assay provides a method for screening human MAGL inhibitors. MAGL hydrolyzes 4-nitrophenylacetate resulting in a yellow product, 4-nitrophenol, with an absorbance of 405-412 nm. MAGL Inhibition was measured by the following assay. Monoacylglycerol Lipase (MAGL) inhibition was measured using recombinant MAGL enzyme (aa 2-303 RBC, internal preparation) and the substrate 4-Nitrophenyl acetate (4NPA) (Sigma-Aldrich, N8130). Hydrolysis of the substrate in the presence of the enzyme was measured by absorbance at 405 nm. 10 μL of assay buffer (10 mM Tris pH 7.5, 1 mM EDTA, 0.9% DMSO) was added to a black 384-well non-binding plate with clear bottom (Greiner, 781906) for each reaction. […] DMSO control wells were included for reference. A 10.8 nM (1.8×) MAGL mix in assay buffer was prepared, with 25 μL added to each reaction well, for a final assay concentration of 6 nM. No enzyme wells received 25 μL of buffer. Plate was incubated at room temperature for 30 minutes. 35 mM solution of 4NPA in methanol was prepared daily. A 4.5×4NPA substrate solution was prepared in assay buffer and 10 μL was added to each reaction well, for a final assay concentration of 0.25 mM. Plate was spun for 1 minute at 1000 rpm before measuring absorbance using a CLARIOstar plate reader (BMG Labtech). A kinetic reading at 405 nm was done every minute for 30 minutes. Data was analyzed using the linear slope of the reaction progress curve and the average of the no-enzyme wells (background) was subtracted from the data. The background-subtracted slope data was converted to % activity using the average of wells with enzyme and DMSO vehicle. IC50s were calculated using GraphPad software (Sigmoidal dose response, variable slope equation). […] Table 8 provides potency measurements of MAGL inhibition measured using the Potency Assay of Example 22 above, with the following modifications described in Table C. [table]
Chain of Monoacylglycerol Lipase (MAGL) (Q99685 2-303): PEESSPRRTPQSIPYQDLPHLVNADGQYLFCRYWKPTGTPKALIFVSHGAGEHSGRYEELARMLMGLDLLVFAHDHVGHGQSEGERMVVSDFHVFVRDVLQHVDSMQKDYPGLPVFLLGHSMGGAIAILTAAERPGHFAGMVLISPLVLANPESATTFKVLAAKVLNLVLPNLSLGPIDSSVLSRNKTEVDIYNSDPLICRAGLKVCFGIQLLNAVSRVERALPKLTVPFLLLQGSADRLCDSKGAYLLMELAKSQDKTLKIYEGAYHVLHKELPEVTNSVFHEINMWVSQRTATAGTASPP
With `O=C(c1cc(O)ccc1F)N1CC2(CC(n3ncc(C4CC4)c3-c3ccccc3Cl)C2)C1` [Compound 411, {6-[5-(o-chlorophenyl)-4-cyclopropyl-1-pyrazolyl]-2-aza-2-spiro[3.3]heptyl}(2-fluoro-5-hydroxyphenyl)methanone], the IC50 lay in the range of 150 to 500 nM.

`Cc1cc(-c2cc(F)ccc2C)n(C2CC3(C2)CN(C(=O)c2cc(O)ccc2F)C3)n1` [Compound 415, (2-fluoro-5-hydroxyphenyl){6-[5-(5-fluoro-2-tolyl)-3-methyl-1-pyrazolyl]-2-aza-2-spiro[3.3]heptyl}methanone]: the IC50 was in the range of 50 to 150 nM.

Consider `Cc1cn(C2CC3(C2)CN(C(=O)c2cc(O)ccc2F)C3)nc1-c1ccccc1F` [Compound 417, (2-fluoro-5-hydroxyphenyl){6-[3-(o-fluorophenyl)-4-methyl-1-pyrazolyl]-2-aza-2-spiro[3.3]heptyl}methanone], for which the IC50 was under 50 nM.

In the case of `Cc1ccccc1-c1c(C)cnn1C1CC2(C1)CN(C(=O)c1ccc(F)cc1OC1CC1)C2` [Compound 419, (2-cyclopropoxy-4-fluorophenyl){6-[4-methyl-5-(o-tolyl)-1-pyrazolyl]-2-aza-2-spiro[3.3]heptyl}methanone], the IC50 lay within 1000 to 5100 nM.

Take `Cc1cnn(C2CC3(C2)CN(C(=O)c2ccc(F)cc2OC2CC2)C3)c1-c1ccccc1C(F)(F)F` [Compound 420, (2-cyclopropoxy-4-fluorophenyl)(6-{4-methyl-5-[o-(trifluoromethyl)phenyl]-1-pyrazolyl}-2-aza-2-spiro[3.3]heptyl)methanone]: the IC50 lay within 1000 to 5100 nM.

Consider `Cc1ccc(F)cc1-c1c(C)cnn1C1CC2(C1)CN(C(=O)c1ccc(F)cc1OC1CC1)C2` [Compound 422, (2-cyclopropoxy-4-fluorophenyl){6-[5-(5-fluoro-2-tolyl)-4-methyl-1-pyrazolyl]-2-aza-2-spiro[3.3]beptyl}methanone], for which the IC50 fell in the range of 1000 to 5100 nM.

For the compound `Cc1cc(-c2cc(F)ccc2C)n(C2CC3(C2)CN(C(=O)c2ccc(F)cc2OC2CC2)C3)n1` [Compound 423, (2-cyclopropoxy-4-fluorophenyl){6-[5-(5-fluoro-2-tolyl)-3-methyl-1-pyrazolyl]-2-aza-2-spiro[3.3]heptyl}methanone], the IC50 was 1000 to 5100 nM.

For the compound `Cc1cn(C2CC3(C2)CN(C(=O)c2ccc(F)cc2OC2CC2)C3)nc1-c1ccccc1F` [Compound 425, (2-cyclopropoxy-4-fluorophenyl){6-[3-(o-fluorophenyl)-4-methyl-1-pyrazolyl]-2-aza-2-spiro[3.3]heptyl}methanone], the IC50 is 150 to 500 nM.

As for `Cc1cc(-c2cc(F)ccc2C)n(C2CC3(C2)CN(C(=O)c2ccc(F)cc2OC(F)F)C3)n1` [Compound 428], the IC50 lay in the range of 150 to 500 nM.

Turning to `COc1cc(F)ccc1C(=O)N1CC2(CC(n3nc(-c4cc(F)ccc4C)cc3C)C2)C1` [Compound 439, (4-fluoro-2-methoxyphenyl){6-[3-(5-fluoro-2-tolyl)-5-methyl-1-pyrazolyl]-2-aza-2-spiro[3.3]heptyl}methanone], the IC50 fell in the range of 1000 to 5100 nM.

As to `Cc1cc(F)c(C(=O)N2CC3(CC(n4cc(C)c(-c5ccccc5C)n4)C3)C2)cc1O` [Compound 443], the IC50 lay within 1000 to 5100 nM.

Turning to `Cc1cn(C2CC3(C2)CN(C(=O)c2cc(O)ccc2F)C3)nc1-c1ccccc1C(F)(F)F` [Compound 444, (2-fluoro-5-hydroxyphenyl)(6-{4-methyl-3-[o-(trifluoromethyl)phenyl]-1-pyrazolyl}-2-aza-2-spiro[3.3]heptyl)methanone], the IC50 is under 50 nM.

Turning to `Cc1ccc(F)cc1-c1cc(C)n(C2CC3(C2)CN(C(=O)c2cc(O)ccc2F)C3)n1` [Compound 446, (2-fluoro-5-hydroxyphenyl){6-[3-(5-fluoro-2-tolyl)-5-methyl-1-pyrazolyl]-2-aza-2-spiro[3.3]heptyl}methanone], the IC50 was under 50 nM.

For the compound `Cc1ccccc1-c1nn(C2CC3(C2)CN(C(=O)c2ccc(F)cc2OC2CC2)C3)cc1C` [Compound 447, (2-cyclopropoxy-4-fluorophenyl){6-[4-methyl-3-(o-tolyl)-1-pyrazolyl]-2-aza-2-spiro[3.3]heptyl}methanone], the IC50 lay in the range of 150 to 500 nM.

Regarding `Cc1cn(C2CC3(C2)CN(C(=O)c2ccc(F)cc2OC2CC2)C3)nc1-c1ccccc1C(F)(F)F` [Compound 448, (2-cyclopropoxy-4-fluorophenyl)(6-{4-methyl-3-[o-(trifluoromethyl)phenyl]-1-pyrazolyl}-2-aza-2-spiro[3.3]heptyl)methanone], the IC50 lay in the range of 50 to 150 nM.

For the compound `Cc1ccc(F)cc1-c1nn(C2CC3(C2)CN(C(=O)c2ccc(F)cc2OC2CC2)C3)cc1C` [Compound 449, (2-cyclopropoxy-4-fluorophenyl){6-[3-(5-fluoro-2-tolyl)-4-methyl-1-pyrazolyl]-2-aza-2-spiro[3.3]beptyl}methanone], the IC50 was in the range of 150 to 500 nM.

For `Cc1ccc(F)cc1-c1cc(C)n(C2CC3(C2)CN(C(=O)c2ccc(F)cc2OC2CC2)C3)n1` [Compound 450, (2-cyclopropoxy-4-fluorophenyl){6-[3-(5-fluoro-2-tolyl)-5-methyl-1-pyrazolyl]-2-aza-2-spiro[3.3]heptyl}methanone], the IC50 lay in the range of 150 to 500 nM.

For `Cc1cnn(C2CC3(C2)CN(C(=O)c2ccc(F)cc2OC2CC2)C3)c1-c1ccccc1F` [Compound 452, (2-cyclopropoxy-4-fluorophenyl){6-[5-(o-fluorophenyl)-4-methyl-1-pyrazolyl]-2-aza-2-spiro[3.3]beptyl}methanone], the IC50 lay within 1000 to 5100 nM.

Regarding `Cc1ccc(F)cc1-c1cc(C)n(C2CC3(C2)CN(C(=O)c2ccc(F)cc2OC(F)F)C3)n1` [Compound 455, (2-difluoromethoxy-4-fluorophenyl){6-[3-(5-fluoro-2-tolyl)-5-methyl-1-pyrazolyl]-2-aza-2-spiro[3.3]heptyl}methanone], the IC50 lay within 50 to 150 nM.

Still in this experiment, the particulars now being: Method 6: Reaction Biology MAGL enzyme, 6 nM; read-out: Potency (MAGL inhibition).
On to `Cc1cn(C2CC3(C2)CN(C(=O)c2cc(O)ccc2F)C3)nc1-c1ccccc1Cl` [Compound 416], for which the IC50 was over 10000 nM.

As to `O=C(c1ccc(F)cc1OC1CC1)N1CC2(CC(n3nc(C(F)(F)F)cc3-c3ccccc3C(F)(F)F)C2)C1` [Compound 424, (2-cyclopropoxy-4-fluorophenyl)(6-(3-(trifluoromethyl)-5-(2-(trifluoromethyl)phenyl)-1H-pyrazol-1-yl)-2-azaspiro[3.3]heptan-2-yl)methanone], the IC50 was over 10000 nM.

For the compound `Cc1ccccc1-c1ccn(C2CC3(C2)CN(C(=O)c2cc(O)ccc2F)C3)n1` [Compound 441], the IC50 is over 10000 nM.

For `Cc1ccccc1-c1cc(C)n(C2CC3(C2)CN(C(=O)c2cc(O)ccc2F)C3)n1` [Compound 442], the IC50 is over 10000 nM.

As to `O=C(c1cc(O)ccc1F)N1CC2(CC(n3cc(C4CC4)c(-c4ccccc4Cl)n3)C2)C1` [Compound 445], the IC50 was over 10000 nM.

Staying with this experiment, now noted: Method 11: Reaction Biology MAGL enzyme, 25 nM (name: Conc 20); read-out: MAGL Potency (Detection Method).
As for `Cc1ccc(F)cc1-c1cc(C)n(C2CC3(C2)CN(C(=O)c2ccc(F)cc2OCF)C3)n1` [Compound 437, (4-fluoro-2-fluoromethoxyphenyl){6-[3-(5-fluoro-2-tolyl)-5-methyl-1-pyrazolyl]-2-aza-2-spiro[3.3]heptyl}methanone], the IC50 lay within 1000 to 5100 nM.

Turning to `Cc1ccc(F)cc1-c1cc(C)n(C2CC3(C2)CN(C(=O)c2ccc(F)cc2OC(F)(F)F)C3)n1` [Compound 454, {6-[3-(5-fluoro-2-tolyl)-5-methyl-1-pyrazolyl]-2-aza-2-spiro[3.3]heptyl}(4-fluoro-2-trifluoromethoxyphenyl)methanone], the IC50 was 1000 to 5100 nM.

Turning to `Cc1ccc(F)cc1-c1cc(C(F)(F)F)n(C2CC3(C2)CN(C(=O)c2ccc(F)cc2OC2CC2)C3)n1` [Compound 456, (2-cyclopropoxy-4-fluorophenyl){6-[3-(5-fluoro-2-tolyl)-5-(trifluoromethyl)-1-pyrazolyl]-2-aza-2-spiro[3.3]heptyl}methanone], the IC50 fell in the range of 500 to 1000 nM.

In the case of `Cc1ccc(F)cc1-c1cc(C(F)(F)F)nn1C1CC2(C1)CN(C(=O)c1ccc(F)cc1OC1CC1)C2` [Compound 457, (2-cyclopropoxy-4-fluorophenyl){6-[5-(5-fluoro-2-tolyl)-3-(trifluoromethyl)-1-pyrazolyl]-2-aza-2-spiro[3.3]heptyl}methanone], the IC50 lay within 1000 to 5100 nM.

Staying with this experiment, now noted: Method 11: Reaction Biology MAGL enzyme, 25 nM (name: Conc 20); read-out: Potency (MAGL inhibition).
In the case of `Cc1cc(-c2cc(F)ccc2C)n(C2CC3(C2)CN(C(=O)c2ccc(F)cc2OC(F)(F)F)C3)n1` [Compound 427], the IC50 was over 10000 nM.

Staying with this experiment, now noted: Method 14: Reaction Biology MAGL enzyme, 6 nM; read-out: MAGL Potency (Detection Method).
As for `Cc1ccccc1-c1nn(C2CC3(C2)CN(C(=O)c2cc(O)ccc2F)C3)cc1C` [Compound 440, (2-fluoro-5-hydroxyphenyl){6-[4-methyl-3-(o-tolyl)-1-pyrazolyl]-2-aza-2-spiro[3.3]heptyl}methanone], the IC50 is under 50 nM.
